Reference: the NIST ThermoML archive (doi:10.1021/acs.jced.7b00106)
Values joined by “and” are separate entries in the source; they are usually repeats but may differ in a detail not shown here. Identical values can stand only once.

Conditions: Fluid (supercritical or subcritical phases), Hot wire method

FC(F)(F)/C=C/Cl [(E)-1-chloro-3,3,3-trifluoroprop-1-ene]
Conditions | thermal conductivity
451.94 K, 2166 kPa | 0.02385 W/m/K
451.94 K, 5208 kPa | 0.04623 W/m/K
451.95 K, 2165 kPa | 0.02394 W/m/K
451.98 K, 987 kPa | 0.02333 W/m/K
451.98 K, 990 kPa | 0.0233 W/m/K
451.98 K, 3273 kPa | 0.02726 W/m/K
451.99 K, 3272 kPa | 0.02725 W/m/K
452.01 K, 1670 kPa | 0.02346 W/m/K
452.01 K, 1671 kPa | 0.0235 W/m/K
452.01 K, 2616 kPa | 0.02474 W/m/K
452.01 K, 2617 kPa | 0.02483 W/m/K
452.03 K, 5206 kPa | 0.0467 W/m/K
452.03 K, 5207 kPa | 0.04676 W/m/K
452.06 K, 2990 kPa | 0.026 W/m/K
452.06 K, 2991 kPa | 0.02595 W/m/K
452.09 K, 2165 kPa | 0.02407 W/m/K and 0.024 W/m/K
452.12 K, 5207 kPa | 0.0469 W/m/K
452.13 K, 5206 kPa | 0.04663 W/m/K
452.14 K, 7293 kPa | 0.04964 W/m/K
452.14 K, 7296 kPa | 0.04969 W/m/K
452.15 K, 987 kPa | 0.02338 W/m/K
452.16 K, 988 kPa | 0.02337 W/m/K
452.16 K, 2617 kPa | 0.02488 W/m/K
452.17 K, 1671 kPa | 0.02356 W/m/K
452.17 K, 2617 kPa | 0.02487 W/m/K
452.19 K, 5579 kPa | 0.04728 W/m/K
452.2 K, 2991 kPa | 0.02606 W/m/K
452.2 K, 5578 kPa | 0.0472 W/m/K
452.21 K, 2990 kPa | 0.026 W/m/K
452.23 K, 5207 kPa | 0.04713 W/m/K
452.24 K, 5208 kPa | 0.0472 W/m/K
452.25 K, 2165 kPa | 0.024 W/m/K
452.29 K, 5577 kPa | 0.04741 W/m/K
452.3 K, 5578 kPa | 0.04745 W/m/K
452.31 K, 7293 kPa | 0.04973 W/m/K
452.32 K, 7296 kPa | 0.0498 W/m/K
452.33 K, 988 kPa | 0.0233 W/m/K
452.33 K, 2615 kPa | 0.02494 W/m/K
452.33 K, 2618 kPa | 0.02493 W/m/K
452.33 K, 6080 kPa | 0.04801 W/m/K
452.33 K, 6081 kPa | 0.04806 W/m/K
452.34 K, 988 kPa | 0.02333 W/m/K
452.34 K, 1671 kPa | 0.02345 W/m/K
452.35 K, 1672 kPa | 0.02348 W/m/K
452.36 K, 22580 kPa | 0.06316 W/m/K
452.41 K, 5578 kPa | 0.04763 W/m/K
452.42 K, 2166 kPa | 0.02413 W/m/K
452.42 K, 2167 kPa | 0.02408 W/m/K
452.42 K, 5577 kPa | 0.04756 W/m/K
452.43 K, 12588 kPa | 0.05554 W/m/K
452.43 K, 12589 kPa | 0.05558 W/m/K
452.46 K, 18530 kPa | 0.06032 W/m/K
452.46 K, 18535 kPa | 0.06035 W/m/K
452.48 K, 7729 kPa | 0.0503 W/m/K
452.48 K, 7733 kPa | 0.05033 W/m/K
452.49 K, 10507 kPa | 0.05349 W/m/K
452.5 K, 7296 kPa | 0.04992 W/m/K
452.5 K, 7299 kPa | 0.04984 W/m/K
452.51 K, 6079 kPa | 0.04861 W/m/K
452.51 K, 6081 kPa | 0.04828 W/m/K
452.51 K, 15249 kPa | 0.05785 W/m/K
452.52 K, 10513 kPa | 0.05353 W/m/K
452.52 K, 15256 kPa | 0.05787 W/m/K
452.52 K, 22575 kPa | 0.06312 W/m/K
452.52 K, 22580 kPa | 0.06313 W/m/K
452.53 K, 989 kPa | 0.02342 W/m/K
452.53 K, 5576 kPa | 0.04776 W/m/K
452.53 K, 5577 kPa | 0.0478 W/m/K
452.53 K, 6779 kPa | 0.0491 W/m/K
452.53 K, 6780 kPa | 0.0491 W/m/K
452.54 K, 985 kPa | 0.02339 W/m/K
452.54 K, 1671 kPa | 0.02355 W/m/K
452.54 K, 1672 kPa | 0.02352 W/m/K
452.58 K, 8954 kPa | 0.0518 W/m/K
452.58 K, 8958 kPa | 0.05186 W/m/K
452.61 K, 12577 kPa | 0.05553 W/m/K
452.61 K, 12585 kPa | 0.05555 W/m/K
452.61 K, 18524 kPa | 0.06031 W/m/K
452.63 K, 18535 kPa | 0.06055 W/m/K
452.65 K, 5576 kPa | 0.04794 W/m/K
452.65 K, 5578 kPa | 0.04801 W/m/K
452.67 K, 7732 kPa | 0.0504 W/m/K
452.67 K, 7733 kPa | 0.05035 W/m/K
452.68 K, 10507 kPa | 0.05353 W/m/K
452.68 K, 10512 kPa | 0.05353 W/m/K
452.69 K, 6081 kPa | 0.04841 W/m/K
452.69 K, 7300 kPa | 0.05001 W/m/K
452.69 K, 7301 kPa | 0.04996 W/m/K
452.69 K, 15244 kPa | 0.05785 W/m/K
452.69 K, 22569 kPa | 0.06311 W/m/K
452.69 K, 22574 kPa | 0.06307 W/m/K
452.7 K, 6080 kPa | 0.04844 W/m/K
452.71 K, 6780 kPa | 0.04921 W/m/K
452.72 K, 6782 kPa | 0.04926 W/m/K
452.75 K, 990 kPa | 0.02344 W/m/K
452.76 K, 988 kPa | 0.02344 W/m/K
452.77 K, 8956 kPa | 0.05187 W/m/K and 0.05189 W/m/K
452.79 K, 18524 kPa | 0.0603 W/m/K
452.79 K, 18533 kPa | 0.06034 W/m/K
452.8 K, 12582 kPa | 0.05559 W/m/K
452.86 K, 7730 kPa | 0.05046 W/m/K
452.86 K, 7733 kPa | 0.05047 W/m/K
452.87 K, 10511 kPa | 0.05358 W/m/K
452.87 K, 22562 kPa | 0.06294 W/m/K
452.88 K, 10507 kPa | 0.05361 W/m/K
452.88 K, 15241 kPa | 0.05786 W/m/K
452.88 K, 15242 kPa | 0.05782 W/m/K
452.88 K, 22559 kPa | 0.06307 W/m/K
452.89 K, 6080 kPa | 0.04865 W/m/K
452.89 K, 6081 kPa | 0.04866 W/m/K
452.9 K, 7299 kPa | 0.0501 W/m/K
452.9 K, 7305 kPa | 0.05013 W/m/K
452.91 K, 6780 kPa | 0.04939 W/m/K
452.91 K, 6781 kPa | 0.04936 W/m/K
452.96 K, 8959 kPa | 0.05193 W/m/K
452.97 K, 8955 kPa | 0.0519 W/m/K
452.98 K, 18519 kPa | 0.06033 W/m/K
452.99 K, 12573 kPa | 0.05553 W/m/K
452.99 K, 12587 kPa | 0.05557 W/m/K
453.06 K, 7731 kPa | 0.05059 W/m/K
453.06 K, 22554 kPa | 0.06303 W/m/K
453.06 K, 22568 kPa | 0.06306 W/m/K
453.07 K, 7733 kPa | 0.05056 W/m/K
453.07 K, 10506 kPa | 0.05359 W/m/K
453.07 K, 15242 kPa | 0.05784 W/m/K
453.08 K, 10511 kPa | 0.05377 W/m/K
453.08 K, 15250 kPa | 0.05787 W/m/K
453.1 K, 6079 kPa | 0.04859 W/m/K
453.12 K, 6779 kPa | 0.0495 W/m/K
453.12 K, 6780 kPa | 0.04953 W/m/K
453.17 K, 18517 kPa | 0.06031 W/m/K
453.17 K, 18518 kPa | 0.06033 W/m/K
453.18 K, 8956 kPa | 0.05196 W/m/K
453.18 K, 8959 kPa | 0.05204 W/m/K
453.2 K, 12578 kPa | 0.05564 W/m/K
453.2 K, 12584 kPa | 0.05564 W/m/K
453.27 K, 7731 kPa | 0.05062 W/m/K
453.27 K, 10508 kPa | 0.05365 W/m/K
453.28 K, 7728 kPa | 0.05065 W/m/K
453.28 K, 10506 kPa | 0.05366 W/m/K
453.28 K, 15236 kPa | 0.05778 W/m/K
453.28 K, 15246 kPa | 0.05788 W/m/K
453.33 K, 6776 kPa | 0.0497 W/m/K
453.33 K, 6780 kPa | 0.04971 W/m/K
453.39 K, 8959 kPa | 0.05209 W/m/K
